Measured values from ChEMBL document CHEMBL1142144, “Semimechanistic pharmacokinetic/pharmacodynamic model for assessment of activity of antibacterial agents from time-kill curve experiments” (2007).
Values after ≈ are worked out from the molar mass of the structure shown.

What follows are molecules tested on Streptococcus pyogenes (assay: Antibacterial activity against Streptococcus pyogenes M12 by time-kill curve assay).
Assay type: functional

For `CN[C@H](CC(C)C)C(=O)N[C@H]1C(=O)N[C@@H](CC(N)=O)C(=O)N[C@H]2C(=O)N[C@H]3C(=O)N[C@H](C(=O)N[C@H](C(=O)O)c4cc(O)cc(O)c4-c4cc3ccc4O)[C@H](O)c3ccc(c(Cl)c3)Oc3cc2cc(c3O[C@@H]2O[C@H](CO)[C@@H](O)[C@H](O)[C@H]2O[C@H]2C[C@](C)(N)[C@H](O)[C@H](C)O2)Oc2ccc(cc2Cl)[C@H]1O` [VANCOMYCIN], which MIC is on record?
The MIC was 0.25 µg/mL (≈ 0.173 µM).

`CO/N=C(\C(=O)N[C@@H]1C(=O)N2C(C(=O)O)=C(COC(N)=O)CS[C@H]12)c1ccco1` [CEFUROXIME] was tested. Which MIC did it give?
The MIC was 0.0313 µg/mL (≈ 0.0738 µM).

For `COc1c(N2C[C@@H]3CCCN[C@@H]3C2)c(F)cc2c(=O)c(C(=O)O)cn(C3CC3)c12` [MOXIFLOXACIN], which MIC is on record?
Its MIC is 0.125 µg/mL (≈ 0.311 µM).

For `CC1(C)S[C@@H]2[C@H](NC(=O)Cc3ccccc3)C(=O)N2[C@H]1C(=O)O` [PENICILLIN G], which MIC is on record?
Its MIC is 0.012 µg/mL (≈ 0.0359 µM).

How did the MIC turn out when `CC[C@H]1OC(=O)[C@H](C)[C@@H](O[C@H]2C[C@@](C)(OC)[C@@H](O)[C@H](C)O2)[C@H](C)[C@@H](O[C@@H]2O[C@H](C)C[C@H](N(C)C)[C@H]2O)[C@](C)(O)C[C@@H](C)C(=O)[C@H](C)[C@@H](O)[C@]1(C)O` [ERYTHROMYCIN] was run?
The MIC was 0.125 µg/mL (≈ 0.17 µM).
